Reference: patent US9834549B2, “3,3-disubstituted-(8-aza-bicyclo[3.2.1]OCT-8-yl)-[5-(1H-pyrazol-4-yl)-thiophen-3-yl]-methanones as inhibitors of 11 (β)-HSD1” (The University Of Edinburgh, priority 2010, dated 2017)

Experiments:
[1] = Oral exposure and tissue distribution in rats; format: in vivo, male Sprague Dawley rats; settings: rat, oral 10 mg/kg; for Cmax: male, Sprague Dawley, plasma, read-out: Plasma Cmax (maximum plasma concentration)
Experimental: The circulating plasma levels and tissue distribution of certain compounds were determined following oral administration of compound (10 mg/kg) to male Sprague Dawley rats. Rats (n=3 per group) were culled at 1, 4 and 6 hours post dosing and trunk blood and tissues (liver, adipose and brain) excised. Blood samples at 30 minutes and 2 hours post dosing were taken by tail nick from the 4 hour and 6 hour rats respectively.
Compound was triple extracted from plasma (prepared from blood by a high speed centrifugation step) spiked with 1 μg of a standard compound using ethyl acetate. Extracts were dried under nitrogen and re-suspended in 60% methanol/40% ammonium acetate (5 mM).
A known weight of tissue was homogenized in 3 volumes Krebs buffer. Compound was triple extracted with ethyl acetate from the supernatant of a low speed spin spiked with 1 μg of a standard compound. Extracts were dried under nitrogen and re-suspended in 60% methanol/40% ammonium acetate (5 mM).
Samples from plasma and tissue were analyzed by TSQ Quantum Discovery Tandem Mass Spectrometer and Surveyor Liquid Chromatogram (Thermo, Hemel-Hempstead, UK). 10 μL of each sample was injected in a mobile phase consisting of 60%:40% methanol:5 mM ammonium acetate at a flow rate of 0.5 mL/minute. The column used was a BDS hypersil, C18, 50×2.1 mm with a 5 μm particle size.
Each compound was tuned with a spray voltage of 3000 V and a capillary temperature of 300° C. and values for tube lens, CID and product ions were determined.
The peak area for each compound and for the internal standard was determined and the concentration of compound per gram of tissue or mL of plasma was calculated by comparison of the peak area ratio to a standard curve.

Pharmacokinetics in rat = format: in vivo, male Sprague Dawley rats; settings: male, Sprague Dawley, intravenous 1 mg/kg and oral 5 mg/kg; for bioavailability: blood, read-out: % F (% bioavailability); for clearance: plasma, read-out: Cl (plasma clearance)
Experimental: The pharmacokinetic parameters of certain compounds were determined following intravenous (1 mg/kg) and oral (5 mg/kg) administration to male Sprague Dawley rats. Dosing solution was prepared by mixing each compound with 2% DMSO, 38% PEG-400 and 60% (0.9%) NaCl. Solutions were passed through 0.2 μm filters prior to administration.
Following dosing and at appropriate time points, blood samples were taken from a lateral tail vein and transferred into a tube pre-treated with EDTA. Blood samples were analysed for parent compound by LCMS and the quantity of parent compound remaining determined. Non-compartmental analysis was applied to the data using WinNonlin™ software to determine the pharmacokinetic parameters for each compound.

Structure (SMILES) | Cmax [1] [ng/mL] | Liver Cmax (maximum liver concentration) [1] | bioavailability (Pharmacokinetics in rat) [%] | clearance (Pharmacokinetics in rat) [mL/min/kg]
O=C(c1csc(-c2cn[nH]c2)c1)N1C2CCC1CC(O)(c1ncccn1)C2 (centres unmarked) [XX-20, (3-Hydroxy-3-pyrimidin-2-yl-8-aza-bicyclo[3.2.1]oct-8-yl)-[5-(1H-pyrazol-4-yl)-thiophen-3-yl]-methanone] | > 1000 | +++ (>5001 +++) | 41 to 100 | < 25
O=C(c1csc(-c2cn[nH]c2)c1)N1C2CCC1CC(O)(c1nccs1)C2 (centres unmarked) [XX-29] | 501 to 1000 | ++ (3001-5000 ++) | 41 to 100 | < 25
